Assay results reported in US7727949B2, “Cleaning agent for thermostatic chambers” (Wako Pure Chemical Industries, Ltd., priority 2005, dated 2010).

How the values were obtained:
Assay type in all cases: cell-based
[1] = tested on: Staphylococcus aureus (NBRC12732); assay: Study of germicidal activity of agents in the presence of proteins; design: key to growth of the microorganism S.a: a case where growth of the microorganism on the surface of the medium was recognized is shown by +; a case where growth of the microorganism on the surface of the medium was not recognized is shown by −; conditions: agent 50 μg/mL
Protocol: (§1) Didecyldimethylammonium adipate (DDAA), N-bis(3-aminopropyl)dodecylamine (TAA) and benzalkonium chloride were respectively prepared such that a concentration thereof is 1 w/w %.
(§2) GOT solution: GOT Substrate-Enzyme solution and GOT•L2α-KG solution which were components of L type Wako GOT•J2 kit (produced by Wako Pure Chemical Industries, Ltd.) were prepared with distilled water so as to become a 0.1 w/w % aqueous solution.
(§3) GPT solution: GOT Substrate-Enzyme solution and GOT•L2α-KG solution which were components of L type Wako GPT•J2 kit (produced by Wako Pure Chemical Industries, Ltd.) were prepared with distilled water so as to become a 0.1 w/w % aqueous solution.
(§4) Serum: Control Serum II Wako (produced by Wako Pure Chemical Industries, Ltd.) was prepared with distilled water so as to become a 0.1 w/w % aqueous solution.
(§5) i) The individual test microorganism, which was preliminarily cultured in bouillon medium in advance until 1×10^8 microorganisms/mL, were diluted with sterilized physiological saline for 100 times (to 1×10^6 microorganisms/mL) to obtain a solution of test microorganisms. ii) Into a 20 mL test tube made of glass which was preliminarily sterilized by dry-heat sterilization, the agent aqueous solution, the reagent solution and the solution of test microorganisms as prepared in the above described i) were added such that a final concentration of the agent become 50 μg/mL, a final concentration of the reagent become 100 μg/mL, and the number of test microorganisms become 1×10^5 microorganisms/mL, respectively, when a total volume thereof is prepared to be 10 mL. And then, the tube was sufficiently stirred. iii) After a lapse of predetermined times (5 min, 10 min, and 15 min), the solution as obtained in the above described ii) was smeared with a platinum loop on the surface of the nutrient agar plate medium preliminarily having been prepared, and the medium was cultured at 35° C.±2° C. for 24 hours. iv) After the cultivation, confirming the presence or not of the growth of the microorganisms on the surface of the medium was conducted. (3) Result
(§6) In Table 3, a case where growth of the microorganism on the surface of the medium was recognized is shown by +, and a case where growth of the microorganism on the surface of the medium was not recognized is shown by −, respectively.

[2] = tested on: Bacillus subtilis (NBRC13719); assay: as above; design: key: a case where growth of the microorganism on the surface of the medium was recognized is shown by +; a case where growth of the microorganism on the surface of the medium was not recognized is shown by −; conditions: agent 50 μg/mL
Protocol: as §1, §2, §3, §4, §5, §6

[3] = tested on: Escherichia coli (NBRC3972); assay: as above; design: key: a case where growth of the microorganism on the surface of the medium was recognized is shown by +; a case where growth of the microorganism on the surface of the medium was not recognized is shown by −; conditions: agent 50 μg/mL
Protocol: as §1, §2, §3, §4, §5, §6

[4] = tested on: Pseudonas aeruginosa (NBRC12689); assay: as above; design: key to growth of the microorganism P.a: a case where growth of the microorganism on the surface of the medium was recognized is shown by +; a case where growth of the microorganism on the surface of the medium was not recognized is shown by −; conditions: agent 50 μg/mL
Protocol: as §1, §2, §3, §4, §5, §6

[5] = tested on: Chaetomium globosum (NBRC6347); assay: Study of antimicrobial activity (MIC, agar plate medium)
Protocol: (§7) In a sterilized petri dish having a diameter of 90 mm, an aqueous solution which was obtained by diluting each of agents with distilled water such that a concentration of the agent become each predetermined concentrations when the solution is prepared to a total volume of 20 mL, and then sterilized water was added into the petri dish such that a total volume of sterilized water and the agent aqueous solution become 2 mL. Further, 18 mL of nutrient agar medium, which was sterilized with high pressure steam and preserved at 50° C.±2° C., was added into the petri dish, and it was solidified to obtain an agar plate medium.
(§8) The individual test microorganism, which was preliminarily cultured in bouillon medium in advance until 1×10^8 microorganisms/mL, was diluted with sterilized physiological saline for 100 times (to 1×10^6 microorganisms/mL). Next, prepared solution of the test microorganism was smeared with a platinum loop on the surface of the agar plate medium prepared in (2), and the medium was cultured at 35° C.±2° C., for 24 hours.
(§9) After the cultivation, confirming the presence or not of growth of the microorganism on the surface of the medium was conducted, a minimum concentration of the agent, where growth of the microorganisms cannot be recognized, was determined as the minimum inhibitory concentration (MIC, μg/mL) of the agent.

[6] = tested on: Aspergillus niger (NBRC6341); assay: as above
Protocol: as §7, §8, §9

[7] = tested on: Penicillium citrinum (NBRC6352); assay: as above
Protocol: as §7, §8, §9

[8] = tested on: Cladosporium cladosporioides (NBRC6348); assay: as above
Protocol: as §7, §8, §9

[9] = tested on: Bacillus subtilis (NBRC13719); assay: as above
Protocol: as §7, §8, §9

[10] = tested on: Escherichia coli (NBRC3972); assay: as above
Protocol: as §7, §8, §9

[11] = tested on: Trichoderma viride (NBRC31831); assay: as above
Protocol: as §7, §8, §9

[12] = tested on: Pseudonas aeruginosa (NBRC12689); assay: as above
Protocol: as §7, §8, §9

[13] = tested on: Staphylococcus aureus (NBRC12732); assay: as above
Protocol: as §7, §8, §9

## benzalkonium chloride [BC, reference compound]
[1]; GOT, 5 min
  growth of the microorganism S.a: −
[1]; GOT, 10 min
  growth of the microorganism S.a: −
[1]; GOT, 15 min
  growth of the microorganism S.a: −
[1]; GPT, 5 min
  growth of the microorganism S.a: −
[1]; GPT, 10 min
  growth of the microorganism S.a: −
[1]; GPT, 15 min
  growth of the microorganism S.a: −
[1]; Serum, 5 min
  growth of the microorganism S.a: +
[1]; Serum, 10 min
  growth of the microorganism S.a: +
[1]; Serum, 15 min
  growth of the microorganism S.a: +
[2]; GOT, 5 min
  growth of the microorganism B.s: +
[2]; GOT, 10 min
  growth of the microorganism B.s: +
[2]; GOT, 15 min
  growth of the microorganism B.s: +
[2]; GPT, 5 min
  growth of the microorganism B.s: +
[2]; GPT, 10 min
  growth of the microorganism B.s: +
[2]; GPT, 15 min
  growth of the microorganism B.s: +
[2]; Serum, 5 min
  growth of the microorganism B.s: +
[2]; Serum, 10 min
  growth of the microorganism B.s: +
[2]; Serum, 15 min
  growth of the microorganism B.s: +
[3]; GOT, 5 min
  growth of the microorganism E.c: +
[3]; GOT, 10 min
  growth of the microorganism E.c: +
[3]; GOT, 15 min
  growth of the microorganism E.c: +
[3]; GPT, 5 min
  growth of the microorganism E.c: +
[3]; GPT, 10 min
  growth of the microorganism E.c: +
[3]; GPT, 15 min
  growth of the microorganism E.c: +
[3]; Serum, 5 min
  growth of the microorganism E.c: +
[3]; Serum, 10 min
  growth of the microorganism E.c: +
[3]; Serum, 15 min
  growth of the microorganism E.c: +
[4]; GOT, 5 min
  growth of the microorganism P.a: +
[4]; GOT, 10 min
  growth of the microorganism P.a: +
[4]; GOT, 15 min
  growth of the microorganism P.a: +
[4]; GPT, 5 min
  growth of the microorganism P.a: +
[4]; GPT, 10 min
  growth of the microorganism P.a: +
[4]; GPT, 15 min
  growth of the microorganism P.a: +
[4]; Serum, 5 min
  growth of the microorganism P.a: +
[4]; Serum, 10 min
  growth of the microorganism P.a: +
[4]; Serum, 15 min
  growth of the microorganism P.a: +
[5]
  Minimum Inhibitory Concentration C.g: 400 µg/mL
[6]
  Minimum Inhibitory Concentration A.n: 1,600 μg/mL
[7]
  Minimum Inhibitory Concentration P.c: 800 µg/mL
[8]
  Minimum Inhibitory Concentration Cl.cl: 200 µg/mL
[9]
  Minimum Inhibitory Concentration B.s: <1.563 µg/mL
[10]
  Minimum Inhibitory Concentration E.c: 100 µg/mL
[11]
  Minimum Inhibitory Concentration T.v: 400 µg/mL
[12]
  Minimum Inhibitory Concentration P.a: 800 µg/mL
[13]
  Minimum Inhibitory Concentration S.a: 6.25 µg/mL
